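Step 1: Grow cells in 96-well plates. Step 2: Expose to compound for 48 hours at 5 concentrations. Step 3: Interpolate endpoints linearly; if unreached, use highest concentration. Abbreviation: GI50, concentration required for 50% inhibition of growth. TGI is the concentration that stops growth completely.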
Columns and labels:
Test in all cases: inhibition of tumour cell growth, NCI panel, 48 h
[1] = test system: MOLT-4 leukemia
[2] = test system: SNB-75 CNS
[3] = test system: NCI-H460 lung
[4] = test system: IGROV1 ovarian
[5] = test system: NCI-H226 lung
[6] = test system: UACC-62 melanoma
[7] = test system: ACHN renal
[8] = test system: SF-539 CNS
[9] = test system: 786-0 renal
[10] = test system: SR leukemia

| SMILES | TGI [1] | TGI [2] | TGI [3] | TGI [4] | TGI [5] | TGI [6] | TGI [7] | TGI [8] | TGI [9] | TGI [10] | GI50 [1] | GI50 [2] | GI50 [3] | GI50 [4] | GI50 [5] | GI50 [6] | GI50 [7] | GI50 [8] | GI50 [9] | GI50 [10] |
| --- | --- | --- | --- | --- | --- | --- | --- | --- | --- | --- | --- | --- | --- | --- | --- | --- | --- | --- | --- | --- |
| COC1=C2CC(C)CC(OC)C(O)C(C)/C=C(\C)C(OC(N)=O)C(OC)/C=C\C=C(/C)C(=O)NC(=C(/C=N/N3CCCCC3)C1=O)C2=O (stereo not given) | 7.39 µM | 41 µM | 57.1 µM | 27 µM | 34.5 µM | 48.1 µM | 28.8 µM | 20.8 µM | 22.8 µM | 7.48 µM | – | – | – | – | – | – | – | – | – | – |
| O=C1NC(=O)C2C1N(Cc1ccccc1)C(=O)N2Cc1ccccc1 (stereo not given) | > 100 µM | > 100 µM | > 100 µM | > 100 µM | > 100 µM | > 100 µM | > 100 µM | > 100 µM | > 100 µM | > 100 µM | – | – | – | – | – | – | – | – | – | – |
| COc1ccc2nc(NC(=O)c3cccnc3Nc3cc(OC)c(OC)c(OC)c3)sc2c1 | > 100 µM | 12.8 µM | 24 µM | 28.5 µM | 96.7 µM | 24.6 µM | 20.6 µM | 11.2 µM | 19.7 µM | 16.1 µM | 24.2 µM | 2.89 µM | 7.42 µM | 13.2 µM | 10.7 µM | 8.45 µM | 6.47 µM | 2.8 µM | 5.6 µM | 2.31 µM |
| CCOC(=O)c1c(C)c(C)n2c1NC(=O)C2 | > 100 µM | > 74.7 µM | > 100 µM | > 100 µM | > 100 µM | > 100 µM | > 100 µM | > 100 µM | 98.9 µM | > 100 µM | – | – | – | – | – | – | – | – | – | – |
| Cn1c(=O)c(Oc2ccc(F)cc2F)cc2cnc(NCCS(C)(=O)=O)nc21 | > 25 µM | > 25 µM | > 25 µM | > 25 µM | > 25 µM | > 25 µM | > 25 µM | > 25 µM | > 25 µM | > 25 µM | > 25 µM | > 25 µM | > 25 µM | > 25 µM | > 25 µM | > 25 µM | > 25 µM | > 25 µM | > 25 µM | > 25 µM |

— PubChem BioAssay (NCI)
